Data from patent publication US7855292B2, “Sulfonamide compounds” (Janssen Pharmaceutica NV, priority 2004, dated 2010).

Assays:
[1] = biological target: T1, CCK-1 receptor (Homo sapiens, UniProt P32238); test: CCK1 binding assay ([125I]-BH-CCK-8S displacement, CHO-K1 membranes); settings: membranes of CHO-K1 cells stably transfected with the CCK-1 receptor; 20 pM [125I]-BH-CCK-8S; 0.3 μM PD-134,308 present; 60 min at 21±3° C.
T1 construct: expressed in transfected cells; host or cells: CHO-K1
T1 sequence (P32238 1-428): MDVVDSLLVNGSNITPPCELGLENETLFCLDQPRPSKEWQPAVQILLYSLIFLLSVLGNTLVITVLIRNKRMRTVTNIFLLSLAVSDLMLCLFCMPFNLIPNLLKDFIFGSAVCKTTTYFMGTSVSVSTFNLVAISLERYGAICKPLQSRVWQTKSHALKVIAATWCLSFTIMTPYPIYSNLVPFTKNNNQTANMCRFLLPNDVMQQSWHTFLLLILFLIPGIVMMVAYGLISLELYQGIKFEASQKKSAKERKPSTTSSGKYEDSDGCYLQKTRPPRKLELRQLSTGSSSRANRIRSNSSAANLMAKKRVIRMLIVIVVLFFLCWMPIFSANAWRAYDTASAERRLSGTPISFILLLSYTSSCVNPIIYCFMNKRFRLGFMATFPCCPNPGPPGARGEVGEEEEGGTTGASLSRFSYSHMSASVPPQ
How it was run: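 Membranes from CHO-K1 cells stably expressing CCK-1 incubated 1 h at 21±3° C with 20 pM [125I]-BH-CCK-8S in HEPES buffer pH 7.2 containing 0.3 μM PD-134,308 to block CCK-2. Bound radioactivity read by gamma counting after filtration. pKi derived via Cheng-Prusoff, with specific binding defined using 2-NAP.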

[2] = biological target: T2, CCK2 receptor (Cavia porcellus, UniProt H0VZC5); test: Guinea-pig gastric corpeal muscle assay (pentagastrin-induced contraction); settings: isolated guinea-pig gastric corpeal muscle strips, pentagastrin concentration-response curves
T2 construct: strips of muscle were dissected and suspended in isolated tissue organ baths; from tissue; host or cells: guinea-pig gastric corpeal muscle strips
T2 sequence (H0VZC5 1-426): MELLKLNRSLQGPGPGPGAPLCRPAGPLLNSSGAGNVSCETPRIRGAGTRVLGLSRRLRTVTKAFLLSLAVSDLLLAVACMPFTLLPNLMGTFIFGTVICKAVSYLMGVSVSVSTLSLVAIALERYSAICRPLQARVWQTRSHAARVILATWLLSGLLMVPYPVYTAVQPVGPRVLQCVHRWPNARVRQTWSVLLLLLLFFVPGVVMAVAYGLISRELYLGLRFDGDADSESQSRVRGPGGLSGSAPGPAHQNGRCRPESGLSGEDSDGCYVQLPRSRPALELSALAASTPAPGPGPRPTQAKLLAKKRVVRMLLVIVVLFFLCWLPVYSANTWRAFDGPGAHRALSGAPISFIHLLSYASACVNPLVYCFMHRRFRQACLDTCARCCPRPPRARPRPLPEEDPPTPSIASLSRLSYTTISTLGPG
Procedure: B. Guinea-Pig Gastric Corpeal Muscle Assay
CCK2 receptor-mediated muscle contraction was measured in an isolated muscle-strip assay of guinea-pig gastric corpeal muscle according to the methods described by Roberts et al. (S. P. Roberts, E. A. Harper, G. F. Watt, V. P. Gerskowitch, R. A. Hull, N. P. Shankley, and J. W. Black, Br. J. Pharmacol., 1996, 118(7):1779-1789). In brief, strips of muscle were dissected and suspended in isolated tissue organ baths for isotonic muscle contraction recording. The baths, containing Krebs-Henseleit solution, were maintained at 24° C. and gassed continuously with 95% O2 and 5% CO2. CCK1 receptors known to be present in this assay were blocked using a selective concentration of a suitable CCK1 receptor antagonist (e.g. 2-NAP). The effectiveness of the test compounds was assessed by measuring their effect on contractile concentration-response curves obtained using a well-characterized surrogate for the hormone gastrin (pentagastrin).

CCK1 pKi [1]: 6.7 | behaviour in the muscle contraction assay (mode of antagonism) [2]: competitive antagonist | Kb ([2]; CCK1 receptors blocked (e.g. 2-NAP), 24° C.): 1.58 nM
SMILES: O=C(N[C@@H](Cc1ccc(Cl)c(Cl)c1)C(=O)O)c1ccc(I)cc1NS(=O)(=O)c1cccc2nsnc12 [Example 2, (S)-2-[2-(Benzo[1,2,5]thiadiazole-4-sulfonylamino)-4-iodo-benzoylamino]-3-(3,4-dichloro-phenyl)-propionic acid]
